Time data for one molecule are collected here from ChEMBL document CHEMBL3045969, “Synthesis and evaluation of some new 4-aminopyridine derivatives as a potent antiamnesic and cognition enhancing drugs” (Med Chem Res, 2012).

Holding throughout (assay type): functional
Holding throughout (details): route intraperitoneal

Test [1] concerns Rattus norvegicus. Nature of the test: Cognition enhancing activity in Charles Foster albino Rattus norvegicus (rat) at 200 mg/kg, ip measured 30 min post dose by elevated plus maze test.
In test [2] the test system is Rattus norvegicus. As to the kind of experiment: Cognition enhancing activity in Charles Foster albino Rattus norvegicus (rat) assessed as transfer latency time at 200 mg/kg, ip for 2 days measured 1 hr post last dose on day 2 by elevated plus maze test.
Test [3] concerns Rattus norvegicus. Nature of the test: Antiamnesic activity in scopolamine-induced amnesia Charles Foster albino Rattus norvegicus (rat) model assessed as transfer latency time at 200 mg/kg, ip ip for 2 days measured 1 hr post last dose on day 2 by elevated plus maze test.
Test [4] relates to Rattus norvegicus. Nature of the test: Antiamnesic activity in scopolamine-induced amnesia Charles Foster albino Rattus norvegicus (rat) model assessed as transfer latency time at 200 mg/kg, ip measured after 30 min by elevated plus maze test.

Turning to `NC(=O)CN1CCCC1=O` [PIRACETAM], the Time in the test with Rattus norvegicus [1] is 49.5 s; in the test on Rattus norvegicus [2], 45.67 s; in the test with Rattus norvegicus [3], 43.33 s; with Rattus norvegicus [4], 47 s.
